Data taken from PubChem BioAssay (NCI).
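Here, GI50 denotes the concentration required for 50% inhibition of growth. TGI is the concentration that stops growth completely.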

Assays:
Experiment in all cases: DTP human tumour cell line panel, 384-well format
[1] = system: 786-0 renal
[2] = system: A498 renal
[3] = system: A549 NSCLC
[4] = system: ACHN renal
[5] = system: BT-549 breast
[6] = system: CAKI-1 renal
[7] = system: CCRF-CEM leukemia
[8] = system: COLO 205 colon
[9] = system: DU-145 prostate
[10] = system: EKVX NSCLC
[11] = system: HCC-2998 colon
[12] = system: HCT-15 colon
[13] = system: HL-60(TB) leukemia
[14] = system: HOP-62 NSCLC
[15] = system: HOP-92 NSCLC
[16] = system: HS 578T breast
[17] = system: HT29 colon
[18] = system: IGROV1 ovarian
[19] = system: K-562 leukemia
[20] = system: KM12 colon
[21] = system: LOX IMVI melanoma
[22] = system: M14 melanoma
[23] = system: MALME-3M melanoma
[24] = system: MCF7 breast
[25] = system: MDA-MB-231 breast
[26] = system: MDA-MB-435 melanoma
[27] = system: MDA-MB-468 breast
[28] = system: MOLT-4 leukemia
[29] = system: NCI-H226 lung
[30] = system: NCI-H23 lung
[31] = system: NCI-H322M lung
[32] = system: NCI-H460 NSCLC
[33] = system: NCI-H522 lung
[34] = system: NCI/ADR-RES ovarian
[35] = system: OVCAR-3 ovarian
[36] = system: OVCAR-4 ovarian
[37] = system: OVCAR-5 ovarian
[38] = system: OVCAR-8 ovarian
[39] = system: PC-3 prostate
[40] = system: RPMI-8226 leukemia
[41] = system: RXF 393 renal
[42] = system: SF-268 CNS
[43] = system: SF-295 CNS
[44] = system: SF-539 CNS
[45] = system: SK-MEL-28 melanoma
[46] = system: SK-MEL-5 melanoma
[47] = system: SK-OV-3 ovarian
[48] = system: SN12C renal
[49] = system: SNB-19 CNS
[50] = system: SNB-75 CNS
[51] = system: SR leukemia
[52] = system: SW-620 colon
[53] = system: T-47D breast
[54] = system: TK-10 renal
[55] = system: UACC-257 melanoma
[56] = system: UACC-62 melanoma
[57] = system: UO-31 renal

**Q.** What does the source list for CCC(CC)n1cnc2c(-c3cnc(N)cn3)nc(N3CC4CCC(C3)O4)nc21?
**A.** GI50 [1]: 2.75 µM; TGI [1]: > 100 µM; GI50 [2]: 0.173 µM; TGI [2]: 1.32 µM; GI50 [3]: 0.418 µM; TGI [3]: > 100 µM; GI50 [4]: 0.523 µM; TGI [4]: > 100 µM; GI50 [5]: 1.06 µM; TGI [5]: 5.22 µM; GI50 [6]: 0.775 µM; TGI [6]: 45.8 µM; GI50 [7]: 0.358 µM; TGI [7]: 14 µM; GI50 [8]: 0.425 µM; TGI [8]: > 100 µM; GI50 [9]: 2.03 µM; TGI [9]: > 100 µM; GI50 [10]: 0.977 µM; TGI [10]: 9.92 µM; GI50 [11]: 10.5 µM; TGI [11]: > 100 µM; GI50 [12]: 0.566 µM; TGI [12]: > 100 µM; GI50 [13]: 44.5 µM; TGI [13]: > 100 µM; GI50 [14]: 1.01 µM; TGI [14]: 39.1 µM; GI50 [15]: 0.298 µM; TGI [15]: 4.96 µM; GI50 [16]: 0.205 µM; TGI [16]: 0.927 µM; GI50 [17]: 2.53 µM; TGI [17]: > 100 µM; GI50 [18]: 0.229 µM; TGI [18]: 0.894 µM; GI50 [19]: 1.68 µM; TGI [19]: > 100 µM; GI50 [20]: 0.508 µM; TGI [20]: > 100 µM; GI50 [21]: 1.08 µM; TGI [21]: 8.87 µM; GI50 [22]: 0.493 µM; TGI [22]: > 100 µM; GI50 [23]: 0.0694 µM; TGI [23]: 0.531 µM; GI50 [24]: 0.184 µM; TGI [24]: 80.3 µM; GI50 [25]: 0.68 µM; TGI [25]: > 100 µM; GI50 [26]: 1.58 µM; TGI [26]: 39.9 µM; GI50 [27]: 0.375 µM; TGI [27]: 1.2 µM; GI50 [28]: 0.375 µM; TGI [28]: 10.5 µM; GI50 [29]: 0.54 µM; TGI [29]: 6.52 µM; GI50 [30]: 1.27 µM; TGI [30]: > 100 µM; GI50 [31]: 0.394 µM; TGI [31]: > 100 µM; GI50 [32]: 0.187 µM; TGI [32]: > 100 µM; GI50 [33]: 0.314 µM; TGI [33]: > 100 µM; GI50 [34]: 2.77 µM; TGI [34]: > 100 µM; GI50 [35]: 0.901 µM; TGI [35]: > 100 µM; GI50 [36]: 0.635 µM; TGI [36]: 3.79 µM; GI50 [37]: 0.685 µM; TGI [37]: > 100 µM; GI50 [38]: 1.75 µM; TGI [38]: > 100 µM; GI50 [39]: 0.348 µM; TGI [39]: > 100 µM; GI50 [40]: 0.029 µM; TGI [40]: 0.151 µM; GI50 [41]: 1.29 µM; TGI [41]: > 100 µM; GI50 [42]: 2.57 µM; TGI [42]: > 100 µM; GI50 [43]: 0.267 µM; TGI [43]: 2.28 µM; GI50 [44]: 1.63 µM; TGI [44]: > 100 µM; GI50 [45]: 0.309 µM; TGI [45]: 5.99 µM; GI50 [46]: 0.288 µM; TGI [46]: 1.61 µM; GI50 [47]: 0.4 µM; TGI [47]: 5.19 µM; GI50 [48]: 0.433 µM; TGI [48]: > 100 µM; GI50 [49]: 8.09 µM; TGI [49]: > 100 µM; GI50 [50]: 0.312 µM; TGI [50]: 7.84 µM; GI50 [51]: 0.189 µM; TGI [51]: 1.17 µM; GI50 [52]: 3.46 µM; TGI [52]: > 100 µM; GI50 [53]: 0.0669 µM; TGI [53]: 0.431 µM; GI50 [54]: 1.39 µM; TGI [54]: > 100 µM; GI50 [55]: 2.37 µM; TGI [55]: > 100 µM; GI50 [56]: 0.416 µM; TGI [56]: 4.61 µM; GI50 [57]: 3.03 µM; TGI [57]: > 100 µM
